In patent US20250082654A1, “AZD3355 (LESOGABERAN) FOR TREATMENT AND PREVENTION OF NONALCOHOLIC STEATOHEPATITIS (NASH), LIVER FIBROSIS, AND OTHER LIVER CONDITIONS” (Icahn School of Medicine at Mount Sinai, priority 2018, published 2025):

How the values were obtained:
human liver slices = assay: Liver slice assay, histopathology and H&E staining; format: cell-based; conditions: 24 hours
Method: Ten human liver pieces were collected from the Mount Sinai biorepository. The samples were prepared by coring the liver with 8 mm cylindrical coring tools. The liver cores were kept in ice cold WE medium, with GlutaMAX supplemental. A liver core was then mounted on a specimen plate with cyanoacrylate adhesive. Liver slices (approximately 200 μm in thickness) were placed in ice cold Krebs-Henesleit buffer in the presence of carbogen gas. There was then a 1 hour pre-incubation in WE GlutaMAX media with gentamicin in 95% O2 and 5% CO2 at 37° C. in a humidified rocker chamber to restore ATP levels.
The liver slices were then cultured in WE GlutaMAX media with gentamicin in 95% O2 and 5% CO2 at 37° C. in a humidified rocker chamber with slow 70 rpm rocking in the presence of AZD3355 in the amounts of 250 nM, 500 nM, 1000 nM, or 2000 nM, or sorafenib at 1000 nM., or control vehicle (saline water).
After 24 hours, the tissue slices were harvested for either RNA isolation and quantitative PCR for measurements of Col1α1, TNFα, and IL-6 expression, or for histopathology and hematoxylin and eosin (H&E) staining as described in Example 3.

LX-2 cells [1] = assay: Fibrogenic gene expression by RT-qPCR; format: cell-based, human; conditions: 48 and 72 hours
Method: The following fibrogenic gene expressions were quantified by RT-qPCR: • 1. Collagen1α1 (Col1α1); • 2. Alpha Smooth Muscle Actin (αSMA); • 3. Beta PDGF receptor (β-PDGFR); • 4. Transforming growth factor-β receptor1 (TGFβ-R1); • 5. Tissue inhibitor of metalloproteinase—1 (TIMP1); • 6. Tissue inhibitor of metalloproteinase—2 (TIMP2); and • 7. Matrix Metalloproteinase 2 (MMP2).
The kinase inhibitor sorafenib (7.5 μM concentration) was used as positive control and run in parallel. 150,000 LX-2 cells or 200,000 phHSCs per well were plated on 6-well plate dish. Cells were starved overnight in DMEM supplemented with 0.1% BSA (without antibiotic). Cells were then incubated with either AZD3355 or sorafenib at the indicated concentration and duration. Cells were harvested and total RNA was extracted using RNeasy Mini Kit (Qiagen, CA). 0.5 μg of total RNA was used for reverse transcription with ‘RNA to cDNA EcoDry Premix (Double Primed) Kit’ (Clontech, CA). Expression of fibrogenic genes were measured by qPCR using custom designed primers (Sigma-Aldrich, MO) and iQ SYBR Green Supermix (Bio-Rad, CA) on a LightCycler 480 II (Roche Diagnostics Corporation, IN) instrument. Glyceraldehyde-3-phosphate dehydrogenase (GAPDH), […] (RPII), α-tubulin and β-actin genes were tested to determine the best fit for housekeeping gene of the study. […]

phHSCs = assay: Fibrogenic protein expression by western blot and densitometry from cell lysate; format: cell-based, human; conditions: 48 or 72 hours
Method: (§1) Western blot and RT-qPCR experiments were run in parallel. 150,000 LX-2 cells or 200,000 phHSCs per well were plated on a 6-well plate dish. Cells were starved overnight in DMEM supplemented with 0.1% BSA (without antibiotic). Cells were then incubated with either AZD3355 or sorafenib at the indicated concentration and duration. Cells were harvested and lysed using RIPA buffer (50 mM Tris-HC1 pH8.0, 150 mM NaCl, 1% IGEPAL, 0.5% sodium deoxycholate and 0.1% SDS) along with Pierce Protease Inhibitor Mini Tablets, EDTA-Free (ThermoScientific, IL). Total protein was measured by Bradford colorimetric assay using Protein Assay Dye Reagent Concentrate (Bio-Rad, CA). […] After hybridized with HRP conjugated secondary antibody (either Goat anti-rabbit HRP (Jackson ImmunoResearch Laboratories, PA) or anti-mouse IgG-HRP (Cell Signaling Technology, MA) the membrane was treated with Immobilon Western Chemiluminescent HRP substrate (Millipore, MA) and the signals were captured with Amersham Imager 6000 (GE Healthcare, PA). 210 kD of Col1α1, 72 kD of MMP2 and 42 kD of α-SMA bands were recognized by respective antibody. 37 kD band of GAPDH was probed as loading control. For densitometric measurement of the protein bands, images were exported and analyzed using ImageJ 1.50 f software and bands were normalized to the loading control, GAPDH.

LX-2 cells [2] = assay: as above; format: cell-based, human; conditions: LX2 cells, 48 or 72 hours, 30 nM or 100 nM AZD3355 or sorafenib
Method: as §1

NASH model mice = assay: NASH mouse model, histopathological scoring of liver sections; format: in vivo; conditions: 30 mg/kg daily; for Hepatocyte ballooning ± SE: score 0-2; for Portal inflammation ± SE / Lobular Inflammation ± SE / Steatosis ± SE: score 0-3; for Fibrosis Stage ± SE: score 0-4; for NAFLD activity score (NAS) ± SE: score 0-8
Method: Four separate groups of mice were given either 0.5% methylcellulose (as Vehicle) or AZD3355 at 10 mg/kg (low dose) body weight of mice or 30 mg/kg (high dose) body weight of mice by twice daily (BID (5 days/week)) and OCA at 30 mg/kg body weight of mice by daily (QD (5 days/week)) through oral route for up to next 12 weeks (week 13 to week 24). Them last group of mice were not given any drug or vehicle treatment, as No Tx—24 weeks and maintained in parallel with treatment/vehicle groups. Usually all doses were given at early morning and the second daily dose of AZD3355 at evening (10 hours of intervals). All animals were closely monitored the health conditions and behavior.
A piece of tissue from large liver lobe was fixed in 10% Formalin Buffered (Astral Diagnostics Incorporated NJ) embedded in paraffin and microtome sectioning were performed. Slides containing tissue sections were baked at 60° C. for 1 hour and re-hydrated through xylene followed by graded ethanol (100%, 95%, 85% and 70%) into distilled water and processed in either Picrosirius red/Fast green or hematoxylin and eosin staining.
A total of 2 sections/animal were stained with H&E staining performed by standard protocol.
Steatosis, hepatocyte ballooning, lobular inflammation, portal inflammation and fibrosis of picroserious red/fast green and H&E stained liver section were scored according to the NASH Clinical Research Network (NASH CRN) scoring system in a blinded fashion by an expert hepato-pathologist in Icahn School of Medicine at Mount Sinai. NAFLD activity score (NAS) was calculated according to Brunt criteria and range from 0-8. NAS was calculated by the sum of scores of steatosis (0-3), hepatocyte ballooning (0-2) and lobular inflammation (0-3). NAS score of >5.0 strongly correlated with “definite-NASH” whereas <3 correlated with “not-NASH”. Fibrosis (0-4) or portal inflammation (0-3) scores were assessed separately and not included in NAS.

[3] = test system: carbon tetrachloride-induced liver injury; conditions: in vivo; cited from earlier work

CNC(=O)c1cc(Oc2ccc(NC(=O)Nc3ccc(Cl)c(C(F)(F)F)c3)cc2)ccn1 [Sorafenib, sorafenib]
liver cells viability (H&E) (human liver slices): did not change | gene expression of pro-fibrogenic genes Col1α1, αSMA, βPDGF-R, TGFβ-R1, TIMP1, TIMP2, MMP2 (LX-2 cells [1]): downregulated | protein expression of Col1α1 (western blot) (phHSCs): no change | protein expression of Col1α1 (western blot) (LX-2 cells [2]): no change

CC[C@H]1[C@@H](O)[C@@H]2[C@H](CC[C@]3(C)[C@@H]([C@H](C)CCC(=O)O)CC[C@@H]23)[C@@]2(C)CC[C@@H](O)C[C@@H]12 [OCA, Obeticholic acid, reference compound]
Hepatocyte ballooning ± SE (NASH model mice; ♀ Mice, vehicle 1.2 ± 0.1): 1.1 ± 0.2 | Portal inflammation ± SE (NASH model mice; ♀ Mice, vehicle 1.6 ± 0.1): 1.0 ± 0.2 | Lobular Inflammation ± SE (NASH model mice; ♀ Mice, vehicle 2.3 ± 0.1): 1.6 ± 0.1 | Steatosis ± SE (NASH model mice; ♀ Mice, vehicle 2.5 ± 0.1): 2.0 ± 0.2 | Fibrosis Stage ± SE (NASH model mice; ♀ Mice, vehicle 3.0 ± 0.1): 2.2 ± 0.1 | NAFLD activity score (NAS) ± SE (NASH model mice; ♀ Mice, vehicle 6.1 ± 0.4): 4.7 ± 0.6 | Steatohepatitis Grade ± SE (NASH model mice; ♀ Mice, vehicle 1.8 ± 0.2): 1.4 ± 0.3 | Hepatocyte ballooning ± SE (NASH model mice; ♂ Mice, vehicle 1.7 ± 0.1): 1.0 ± 0.2 | Portal inflammation ± SE (NASH model mice; ♂ Mice, vehicle 2.0 ± 0.1): 1.3 ± 0.2 | Steatosis ± SE (NASH model mice; ♂ Mice, vehicle 2.7 ± 0.1): 2.0 ± 0.2 | Lobular Inflammation ± SE (NASH model mice; ♂ Mice, vehicle 2.8 ± 0.1): 1.9 ± 0.2 | Fibrosis Stage ± SE (NASH model mice; ♂ Mice, vehicle 3.3 ± 0.1): 2.9 ± 0.1 | NAFLD activity score (NAS) ± SE (NASH model mice; ♂ Mice, vehicle 7.2 ± 0.3): 5.0 ± 0.6 | Steatohepatitis Grade ± SE (NASH model mice; ♂ Mice, vehicle 2.6 ± 0.2): 1.5 ± 0.3

NCC(CC(=O)O)c1ccc(Cl)cc1 (stereo not shown) [baclofen]
liver injury due to carbon tetrachloride [3]: attenuates injury
